# Reference: patent publication US20190231822A1, “METHODS OF REDUCING CHRONIC GRAFT-VERSUS-HOST DISEASE” (Regents of the University of Minnesota, priority 2016, published 2019)
# Tested on: cGVHD
# Experiment: cGVHD prevention or reversal by an iNKT agonist
# Assay type: in vivo
# Details: intravascular administration
structure (smiles),measurement,value
CCCCCCCCCCCCCCCCCCCCCCCCCC(=O)N[C@@H](CO[C@H]1O[C@H](CO)[C@H](O)[C@H](O)[C@H]1O)[C@H](O)[C@H](O)CCCCCCCCCCCCCC [alpha-galactosylceramide],prevention or reversal of cGVHD,able to prevent or reverse cGVHD
